Results from article PMC9997933, “Anticancer derivative of the natural alkaloid, theobromine, inhibiting EGFR protein: Computer-aided drug discovery approach” (PLOS ONE, 2023).
pIC50: −log10 of the molar value.

Biological target: EGFR (Homo sapiens, UniProt P00533)
Assay: in vitro EGFR inhibition, Human EGFR ELISA kit
Format: biochemical

Sequence of EGFR (P00533 25-1210): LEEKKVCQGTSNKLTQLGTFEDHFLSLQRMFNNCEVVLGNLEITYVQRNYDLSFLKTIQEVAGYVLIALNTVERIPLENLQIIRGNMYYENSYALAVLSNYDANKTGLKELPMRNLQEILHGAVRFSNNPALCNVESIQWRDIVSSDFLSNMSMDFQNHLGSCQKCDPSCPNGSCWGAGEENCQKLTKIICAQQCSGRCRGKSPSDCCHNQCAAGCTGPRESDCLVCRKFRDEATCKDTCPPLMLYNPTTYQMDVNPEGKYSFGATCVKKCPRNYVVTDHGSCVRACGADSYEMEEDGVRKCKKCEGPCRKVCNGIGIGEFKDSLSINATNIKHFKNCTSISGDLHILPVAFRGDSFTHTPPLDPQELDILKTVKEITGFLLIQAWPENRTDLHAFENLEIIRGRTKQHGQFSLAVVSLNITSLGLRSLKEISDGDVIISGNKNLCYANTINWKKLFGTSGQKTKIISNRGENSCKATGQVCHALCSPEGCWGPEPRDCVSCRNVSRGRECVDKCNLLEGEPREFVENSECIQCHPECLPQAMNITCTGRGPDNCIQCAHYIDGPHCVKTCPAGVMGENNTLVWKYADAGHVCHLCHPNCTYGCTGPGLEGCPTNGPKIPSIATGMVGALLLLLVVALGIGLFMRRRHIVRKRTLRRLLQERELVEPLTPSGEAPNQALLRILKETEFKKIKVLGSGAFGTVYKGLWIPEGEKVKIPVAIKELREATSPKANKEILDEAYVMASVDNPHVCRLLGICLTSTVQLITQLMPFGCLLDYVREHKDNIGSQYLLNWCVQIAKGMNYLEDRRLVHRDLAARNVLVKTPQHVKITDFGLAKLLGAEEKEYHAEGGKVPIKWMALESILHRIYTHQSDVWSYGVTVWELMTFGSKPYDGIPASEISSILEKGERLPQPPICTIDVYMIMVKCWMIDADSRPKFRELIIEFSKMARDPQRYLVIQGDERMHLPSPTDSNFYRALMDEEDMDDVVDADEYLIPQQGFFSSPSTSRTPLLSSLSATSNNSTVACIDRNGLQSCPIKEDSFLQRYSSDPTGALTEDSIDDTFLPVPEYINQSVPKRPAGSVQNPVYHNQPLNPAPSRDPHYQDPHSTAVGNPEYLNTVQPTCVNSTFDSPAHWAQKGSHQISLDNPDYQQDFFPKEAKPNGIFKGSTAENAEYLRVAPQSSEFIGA

- pIC50: 7.64
Compound: Cc1cccc(NC(=O)Cn2c(=O)c3c(ncn3C)n(C)c2=O)c1 [T-1-MTA]
